Data on three molecules can be found in patent US8962660B2 (Bristol-Myers Squibb Company, priority 2013, dated 2015).

In one assay the target is T1, human GPR120 (Homo sapiens, UniProt Q5NUL3).
T1 construct: expressed in transfected cells; host or cells: CHOA12 cells
T1 sequence (Q5NUL3 1-361): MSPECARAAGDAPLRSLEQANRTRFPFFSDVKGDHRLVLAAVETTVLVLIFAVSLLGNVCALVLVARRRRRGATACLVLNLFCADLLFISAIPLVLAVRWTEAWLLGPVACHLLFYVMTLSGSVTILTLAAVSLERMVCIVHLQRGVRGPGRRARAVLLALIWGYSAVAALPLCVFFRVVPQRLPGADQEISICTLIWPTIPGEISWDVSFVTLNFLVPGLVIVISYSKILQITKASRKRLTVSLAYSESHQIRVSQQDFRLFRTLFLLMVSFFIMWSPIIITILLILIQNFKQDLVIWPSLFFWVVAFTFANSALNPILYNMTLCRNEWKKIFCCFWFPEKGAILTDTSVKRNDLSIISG
Put plainly: GPR120 pERK AlphaScreen SureFire assay (human). The format is cell-based. The settings on record: CHO cells stably transfected with short form of human GPR120. The gist of the method: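 CHOA12 cells stably expressing short-form human GPR120, serum-starved 2 h, were stimulated 7 min at 37 °C with compound (33.33 μM–0.56 nM, 11-point). pERK read by AlphaScreen SureFire; activation normalized to 50 μM linolenic acid and DMSO blank, EC50 by 4-parameter fit.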
Background: Alpha assays give light when donor and acceptor beads are brought close together.

A further assay has as its system C57BL/6 mice. Put plainly: Acute oral glucose tolerance test. The settings on record: oral glucose tolerance test in mice, dose of 30 mg/kg, AUC t=0-120 min vs vehicle. Type of assay: in vivo. The protocol: 1) Acute Oral Glucose Tolerance Test
C57BL/6 mice were housed individually and fed a standard rodent chow diet. At approximately 11 weeks age, after a 5 h fast, these mice were orally treated with vehicle or test compounds 60 min before a glucose challenge (2 g/kg). Blood glucose levels were determined from tail bleeds taken at −60, 0, 15, 30, 60 and 120 min after the glucose challenge. The blood glucose excursion profile from t=0-120 min was used to calculate an area under the curve (AUC) for compound treatment. This AUC for compound treatment is compared to vehicle treatment.
In an oral glucose tolerance test in mice at dose of 30 mg/kg, Examples 6, 14 and 80 reduced glucose AUC levels by 40%, 30% and 60% respectively.

Usually EC50 stands for the concentration at which the effect is half-maximal. A lower EC50 goes with an effect from little substance. Take `O=C(O)[C@H]1C[C@@H]1CCC12CCC(c3cccc(Oc4ccccc4)c3)(CC1)OC2` (single isomer, unassigned) [Example 14]: the EC50 at human GPR120 is 350 nM. In addition, the “reduced glucose AUC levels” value with C57BL/6 mice is on record as 30%.

For `O=C(O)COCCC12CCC(c3cccc(Oc4ccccc4)c3)(CC1)OC2` [Example 6, 2-(2-(1-(3-Phenoxyphenyl)-2-oxabicyclo[2.2.2]octan-4-yl)ethoxy)acetic acid], a half-maximal response at human GPR120 (EC50) required 560 nM. The “reduced glucose AUC levels” value in the assay on C57BL/6 mice came to 40%.

Turning to `Cc1ccc(Oc2cc(F)cc(C34CCC(CCOCC(=O)O)(CC3)CO4)c2)cc1F` [Example 80, 2-(2-(1-(3-fluoro-5-(3-fluoro-4-methylphenoxy)phenyl)-2-oxabicyclo [2.2.2]octan-4-yl)ethoxy) acetic acid], the concentration for a half-maximal effect (EC50) on human GPR120 was determined as 220 nM. Also, the “reduced glucose AUC levels” value with C57BL/6 mice was determined as 60%.
